Each molecule was assayed against T1, purified human HDAC6 (Homo sapiens, UniProt Q9UBN7) (assay: HDAC6 Enzyme Assay). Conditions: substrate Ac-Arg-Gly-Lys(Ac)-AMC peptide, 1 hour at 30° C.
T1 construct: purchased BPS Bioscience 5006
T1 sequence (Q9UBN7 1-1215): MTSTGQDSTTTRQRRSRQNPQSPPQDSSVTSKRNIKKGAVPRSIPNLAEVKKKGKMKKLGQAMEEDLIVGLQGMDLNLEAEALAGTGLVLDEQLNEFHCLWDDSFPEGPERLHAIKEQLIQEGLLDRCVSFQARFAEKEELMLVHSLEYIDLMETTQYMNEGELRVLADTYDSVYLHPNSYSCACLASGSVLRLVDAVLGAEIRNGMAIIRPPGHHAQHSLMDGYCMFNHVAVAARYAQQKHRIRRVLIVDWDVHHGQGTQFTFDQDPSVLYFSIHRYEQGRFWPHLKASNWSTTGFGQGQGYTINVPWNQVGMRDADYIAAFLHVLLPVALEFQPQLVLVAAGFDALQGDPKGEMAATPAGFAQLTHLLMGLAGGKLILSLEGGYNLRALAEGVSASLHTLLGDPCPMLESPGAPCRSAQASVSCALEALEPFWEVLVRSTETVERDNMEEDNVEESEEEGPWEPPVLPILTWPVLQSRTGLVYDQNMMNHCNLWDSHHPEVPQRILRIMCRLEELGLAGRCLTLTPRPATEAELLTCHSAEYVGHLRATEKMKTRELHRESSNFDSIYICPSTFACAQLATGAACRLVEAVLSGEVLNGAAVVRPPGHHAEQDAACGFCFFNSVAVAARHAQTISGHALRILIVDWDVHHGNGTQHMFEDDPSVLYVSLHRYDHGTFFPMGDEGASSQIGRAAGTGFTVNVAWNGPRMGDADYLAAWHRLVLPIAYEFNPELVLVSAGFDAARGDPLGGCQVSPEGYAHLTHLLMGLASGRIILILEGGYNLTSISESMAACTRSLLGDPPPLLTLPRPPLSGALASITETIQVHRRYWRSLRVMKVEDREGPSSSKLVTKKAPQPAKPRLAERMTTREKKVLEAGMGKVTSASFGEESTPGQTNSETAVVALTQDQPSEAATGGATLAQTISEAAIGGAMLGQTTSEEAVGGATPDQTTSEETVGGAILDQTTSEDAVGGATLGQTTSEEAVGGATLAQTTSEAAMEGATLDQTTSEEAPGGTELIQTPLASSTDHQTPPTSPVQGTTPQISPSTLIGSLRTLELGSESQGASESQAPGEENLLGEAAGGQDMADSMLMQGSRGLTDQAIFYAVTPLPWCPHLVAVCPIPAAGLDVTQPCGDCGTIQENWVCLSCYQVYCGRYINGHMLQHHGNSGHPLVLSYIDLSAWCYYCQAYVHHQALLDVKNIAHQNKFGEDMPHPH
Type: biochemical
Protocol: To measure the inhibition of HDAC6 activity, purified human HDAC6 (BPS Bioscience; Cat. No. 5006) is incubated with substrate Ac-Arg-Gly-Lys(Ac)-AMC peptide (Bachem Biosciences; Cat. No. I-1925) for 1 hour at 30° C. in the presence of test compounds or vehicle DMSO control. The reaction is stopped with the HDAC inhibitor trichostatin A (Sigma; Cat. No. T8552) and the amount of Arg-Gly-Lys-AMC generated is quantitated by digestion with trypsin (Sigma; Cat. No. T1426) and subsequent measurement of the amount of AMC released using a fluorescent plate reader (Pherastar; BMG Technologies) set at Ex 340 nm and Em 460 nm. Concentration response curves are generated by calculating the fluorescence increase in test compound-treated samples relative to DMSO-treated controls, and enzyme inhibition (IC50) values are determined from those curves.

IC50 | SMILES
> 500 nM | C[C@@H](NC(=O)C1(C)CCCCC1)c1ccc(C(=O)NO)s1 [Compound I-43, N-hydroxy-5-((1R)-1-{[(1-methylcyclohexyl)carbonyl]amino}ethyl)thiophene-2-carboxamide]
< 100 nM | CC(NC(=O)c1cc2ccccc2s1)c1ncc(C(=O)NO)s1 (centres unmarked) [Compound I-54, 2-{1-[(1-benzothien-2-ylcarbonyl)amino]ethyl}-N-hydroxy-1,3-thiazole-5-carboxamide]
< 100 nM | CC(NC(=O)c1ccc(OCc2ccccc2)cc1)c1ncc(C(=O)NO)s1 (centres unmarked) [Compound I-49, 2-(1-{[4-(benzyloxy)benzoyl]amino}ethyl)-N-hydroxy-1,3-thiazole-5-carboxamide]
100 to 500 nM | CC(NC(=O)Nc1cc(Cl)cc(Cl)c1)c1ccc(C(=O)NO)s1 (centres unmarked) [Compound I-4, 5-[1-({[(3,5-dichlorophenyl)amino]carbonyl}amino)ethyl]-N-hydroxythiophene-2-carboxamide]
< 100 nM | C[C@@H](NC(=O)c1ccc(-c2ccccc2)cc1)c1ccc(C(=O)NO)s1 [Compound I-46, 5-{(1R)-1-[(biphenyl-4-ylcarbonyl)amino]ethyl}-N-hydroxythiophene-2-carboxamide]
< 100 nM | C[C@@H](NC(=O)c1cc2ccccc2n1C)c1ccc(C(=O)NO)s1 [Compound I-5, N-((1R)-1-{5-[(hydroxyamino)carbonyl]-2-thienyl}ethyl)-1-methyl-1H-indole-2-carboxamide]
> 500 nM | C[C@@H](NC(=O)C(C)(C)C)c1cc(C(=O)NO)on1 [Compound I-182, 3-{(1R)-1-[(2,2-dimethylpropanoyl)amino]ethyl}-N-hydroxyisoxazole-5-carboxamide]
< 100 nM | CC(NC(=O)Nc1cccc(C(F)(F)F)c1)c1ccc(C(=O)NO)s1 (centres unmarked) [Compound I-3, N-hydroxy-5-{1-[({[3-(trifluoromethyl)phenyl]amino}carbonyl)amino]ethyl}thiophene-2-carboxamide]
< 100 nM | CC(NC(=O)Nc1ccc(OC(F)F)cc1)c1ccc(C(=O)NO)s1 (centres unmarked) [Compound I-37, 5-{1-[({[4-(difluoromethoxy)phenyl]amino}carbonyl)amino]ethyl}-N-hydroxythiophene-2-carboxamide]
100 to 500 nM | CC(NC(=O)Nc1ccccc1-c1ccccc1)c1ccc(C(=O)NO)s1 (centres unmarked) [Compound I-27, 5-(1-{[(biphenyl-2-ylamino)carbonyl]amino}ethyl)-N-hydroxythiophene-2-carboxamide]
> 500 nM | C[C@@H](NC(=O)C(C)(C)C)c1ncc(C(=O)NO)s1 [Compound I-166, 2-{(1R)-1-[(2,2-dimethylpropanoyl)amino]ethyl}-N-hydroxy-1,3-thiazole-5-carboxamide]
< 100 nM | CC(NC(=O)Nc1ccc(Oc2ccccc2)cc1)c1ccc(C(=O)NO)s1 (centres unmarked) [Compound I-14, N-hydroxy-5-[1-({[(4-phenoxyphenyl)amino]carbonyl}amino)ethyl]thiophene-2-carboxamide]
100 to 500 nM | CC(NC(=O)Nc1c(F)cccc1F)c1ccc(C(=O)NO)s1 (centres unmarked) [Compound I-20, 5-[1-({[(2,6-difluorophenyl)amino]carbonyl}amino)ethyl]-N-hydroxythiophene-2-carboxamide]
< 100 nM | COc1ccc(C)cc1NC(=O)NC(C)c1ccc(C(=O)NO)s1 (centres unmarked) [Compound I-19, N-hydroxy-5-[1-({[(2-methoxy-5-methylphenyl)amino]carbonyl}amino)ethyl]thiophene-2-carboxamide]
> 500 nM | C[C@@H](NC(=O)c1cc2ccccc2s1)c1cc(C(=O)NO)on1 [Compound I-176, 3-{(1R)-1-[(1-benzothien-2-ylcarbonyl)amino]ethyl}-N-hydroxyisoxazole-5-carboxamide]
100 to 500 nM | C[C@H](NC(=O)c1cccn1C)c1ncc(C(=O)NO)s1 [Compound I-160, N-hydroxy-2-((1S)-1-{[(1-methyl-1H-pyrrol-2-yl)carbonyl]amino}ethyl)-1,3-thiazole-5-carboxamide]
< 100 nM | C[C@@H](NC(=O)c1cc2ccccc2o1)c1ccc(C(=O)NO)s1 [Compound I-39, N-((1R)-1-{5-[(hydroxyamino)carbonyl]-2-thienyl}ethyl)-1-benzofuran-2-carboxamide]
< 100 nM | Cc1c(C(=O)N[C@H](C)c2ccc(C(=O)NO)s2)sc2ccccc12 [Compound I-31, N-((1R)-1-{5-[(hydroxyamino)carbonyl]-2-thienyl}ethyl)-3-methyl-1-benzothiophene-2-carboxamide]
< 100 nM | CC(NC(=O)Nc1ccc(Cl)c(C(F)(F)F)c1)c1ccc(C(=O)NO)s1 (centres unmarked) [Compound I-10, 5-{1-[({[4-chloro-3-(trifluoromethyl)phenyl]amino}carbonyl)amino]ethyl}-N-hydroxythiophene-2-carboxamide]
< 100 nM | C[C@@H](NC(=O)c1cc(Cl)c(Cl)n1C)c1ccc(C(=O)NO)s1 [Compound I-17, 4,5-dichloro-N-((1R)-1-{5-[(hydroxyamino)carbonyl]-2-thienyl}ethyl)-1-methyl-1H-pyrrole-2-carboxamide]
> 500 nM | C[C@@H](NC(=O)C12CC3CC(CC(C3)C1)C2)c1cc(C(=O)NO)on1 [Compound I-170, 3-{(1R)-1-[(1-adamantylcarbonyl)amino]ethyl}-N-hydroxyisoxazole-5-carboxamide]
> 500 nM | C[C@@H](NC(=O)C1(C)CCCCC1)c1ncc(C(=O)NO)s1 [Compound I-162, N-hydroxy-2-((1R)-1-{[(1-methylcyclohexyl)carbonyl]amino}ethyl)-1,3-thiazole-5-carboxamide]
< 100 nM | CC(NC(=O)c1cc2ccccc2n1C)c1ncc(C(=O)NO)s1 (centres unmarked) [Compound I-51, N-(1-{5-[(hydroxyamino)carbonyl]-1,3-thiazol-2-yl}ethyl)-1-methyl-1H-indole-2-carboxamide]
< 100 nM | C[C@H](NC(=O)c1cc2ccccc2s1)c1ncc(C(=O)NO)s1 [Compound I-180, 2-{(1S)-1-[(1-benzothien-2-ylcarbonyl)amino]ethyl}-N-hydroxy-1,3-thiazole-5-carboxamide]
> 500 nM | C[C@@H](NC(=O)C(C)(C)C)c1ccc(C(=O)NO)s1 [Compound I-6, 5-{(1R)-1-[(2,2-dimethylpropanoyl)amino]ethyl}-N-hydroxythiophene-2-carboxamide]
< 100 nM | C[C@@H](NC(=O)c1cccn1C)c1ccc(C(=O)NO)s1 [Compound I-29, N-((1R)-1-{5-[(hydroxyamino)carbonyl]-2-thienyl}ethyl)-1-methyl-1H-pyrrole-2-carboxamide]
< 100 nM | Cc1ccccc1CNC(=O)NC(C)c1ccc(C(=O)NO)s1 (centres unmarked) [Compound I-42, N-hydroxy-5-[1-({[(2-methylbenzyl)amino]carbonyl}amino)ethyl]thiophene-2-carboxamide]
> 500 nM | C[C@H](NC(=O)C1(C)CCCCC1)c1ncc(C(=O)NO)s1 [Compound I-171, N-hydroxy-2-((1S)-1-{[(1-methylcyclohexyl)carbonyl]amino}ethyl)-1,3-thiazole-5-carboxamide]
< 100 nM | C[C@H](NC(=O)c1nc2ccccc2n1C)c1ncc(C(=O)NO)s1 [Compound I-173, N-((1S)-1-{5-[(hydroxyamino)carbonyl]-1,3-thiazol-2-yl}ethyl)-1-methyl-1H-benzimidazole-2-carboxamide]

From patent publication US8546588B2, “Substituted hydroxamic acids and uses thereof” (Millennium Pharmaceuticals, Inc., priority 2010, dated 2013)
